Experimental data published in patent EP4029501A1, “COMBINATION OF POLYAROMATIC UREA DERIVATIVES AND GLUCOCORTICOID OR HDAC INHIBITOR FOR THE TREATMENT OF DISEASES OR CONDITIONS ASSOCIATED WITH MUSCLE CELLS AND/OR SATELLITE CELLS” (Anagenesis Biotechnologies, priority 2021, dated 2022).

Test system: muscle progenitors derived from DMD hiPSC
Assay: Myotube assay: total myotube area per well (alpha-actinin staining)
Assay type: cell-based, human
Conditions: Homo sapiens, Myotube, 72 h, DMD or WT cell source not given; for Emax: efficacy, MA = normalized Myotube Area, 3 days incubation; for EC50: myogenic activity, half-maximal generation of myotubes, 10 points dose-response 1.5 nM to 30 µM, 3 days
Protocol: An in vitro assay for assessing the efficacy of compounds for use in treating, ameliorating, delaying, curing and/or preventing a disease or condition associated with muscle cells and/or satellite cells is described in example 78. Herein, the generation of myotubes and satellite cells after adding a compound to a myotube assay workflow is assessed. Said myotube assay workflow is derived from wild-type or DMD human induced pluripotent stem cells (WT hiPSC or DMD hiPSC). Before the addition of said compound, the assay comprises satellite-like cells, but no significant amount of myotubes.
The efficacy of said compound for use in treating, ameliorating, delaying, curing and/or preventing a disease or condition associated with muscle cells and/or satellite cells is positively correlated with the generation of myotubes (i.e. the increase of the area occupied by myotubes on the assay) and/or satellite cells (i.e. the increase of the number of satellite cells) in the assay after adding said compound. The generation of myotubes by the addition of said compound is expressed as the EC50 value, the concentration of said compound that corresponds with the half-maximal generation of myotubes, and the MA (normalized myotube area) value, the normalized area occupied by generated myotubes on the assay. […] Since muscle cells are formed from myotubes during myogenesis, the generation of myotubes in the assay is a good indicator of the ability of said compound to induce the formation of functional muscle cells in vivo. The number of satellite cells is measured as the percentage of Pax7 positive cells, relative to the total number of cells in the assay, as shown in Figure 3. The percentage of Pax7 is a good indicator of the ability of said compound to induce the formation of satellite cells which are able to play a role in muscle repair and regeneration in vivo.
DMD human induced pluripotent stem cells (hereafter "DMD hiPSC"), generated from the NCRM-1 hiPSC WT cell line by gene editing, or WT human induced pluripotent stem cells (hereafter "WT hiPSC"), being NCRM-1 hiPSC wt cell line, have been differentiated according to Chal et al. 2015, 2016, to produce muscle progenitors (hereafter "hMP"). The hMP population contains satellite-like cells (i.e Pax7-positive cells) and satellite cells' progenies (i.e. Myogenin-positive cells).
Figure 1 provides an example of a Myotube assay workflow. At day 0, hMP are thawed and 3.1 million cells are plated into a T75-flask coated with hESC-qualified Matrigel™ (Corning) in SkGM proliferating medium (PromoCells), supplemented with 5 µM Y-27632 (Tocris Bioscience). On day 2, SkGM proliferating medium is refreshed. On day 4, hMP are harvested and transferred into a 384-well plate coated with collagen type I at a density of 3500 cells/well in a DMEM-based medium, containing 5% of knockout serum replacement (Gibco), 1% PenStrep (Gibco), 1% MEM NEAA (Gibco) and 0.1 mM 2-mercaptoethanol (Gibco) (hereafter "K5 medium") and 5 µM Y-27632. Compounds to be tested are then added in the medium and incubated for 3 days at 37°C. On day 7, cells are fixed and immunostained. For example, myotubes (alpha-actinin staining) and satellite-like (Pax7 staining) cells can be analyzed for total myotube area per well or Pax7-positive cell quantification.
DMD hMP were put in the Myotube assay according to the workflow described in Example 2.1. In particular, compound (i) was added at concentrations ranging from 1.5 nM to 30 µM, starting from day 4. hMP were cultivated for three more days in presence of compound (i), then fixed and analyzed for quantification of total myotube area per well. Duplicates of each condition were averaged.

SMILES | Emax | EC50
CSc1cc(Oc2ccnc3[nH]c(=O)ccc23)ccc1NC(=O)Nc1cc(C(C)(C)C)nn1-c1ccccc1 [(do), 1-(3-(tert-butyl)-1-phenyl-1H-pyrazol-5-yl)-3-(2-(methylthio)-4-((7-oxo-7,8-dihydro-1,8-naphthyridin-4-yl)oxy)phenyl)urea] | ≥ 75% | < 500 nM
CSc1cc(Oc2ccnc3[nH]c(=O)cnc23)ccc1NC(=O)Nc1cc(C(C)(C)C)nn1-c1ccc(C)c(C)c1 [(cd), 1-(3-(tert-butyl)-1-(3,4-dimethylphenyl)-1H-pyrazol-5-yl)-3-(2-(methylthio)-4-((3-oxo-3,4-dihydropyrido[2,3-b]pyrazin-8-yl)oxy)phenyl)urea] | ≥ 75% | < 500 nM
CC(=O)n1nc(C(C)(C)C)cc1NC(=O)Nc1ccc(Oc2ccnc3[nH]c(=O)cnc23)cc1F [(o), 1-(1-acetyl-3-(tert-butyl)-1 H-pyrazol-5-yl)-3-(2-fluoro-4-((3-oxo-3,4-dihydropyrido[2,3-b]pyrazin-8-yl)oxy)phenyl)urea] | 25 to 50% | ≥ 5000 nM
CNCC(=O)Nc1cc(Oc2ccc(NC(=O)Nc3cc(C(C)(C)C)nn3-c3ccccc3)c(SC)c2)ccn1 [(bq), N-(4-(4-(3-(3-(tert-butyl)-1-phenyl-1H-pyrazol-5-yl)ureido)-3-(methylthio)phenoxy)pyridin-2-yl)-2-(methylamino)acetamide] | ≥ 75% | 
CC(C)(C)c1cnc(NC(=O)Nc2ccc(Oc3ccnc4c3CCC(=O)N4)c3ccccc23)s1 [(cu), 1-(5-(tert-butyl)thiazol-2-yl)-3-(4-((7-oxo-5,6,7,8-tetrahydro-1,8-naphthyridin-4-yl)oxy)naphthalen-1-yl)urea] | ≥ 75% | < 500 nM
CNC(=O)c1cc(Oc2ccc(NC(=O)Nc3cc(C(C)(C)C)nn3-c3ccc4ncccc4c3)c(SC)c2)ccn1 [(ag), 4-(4-(3-(3-(tert-butyl)-1-(quinolin-6-yl)-1H-pyrazol-5-yl)ureido)-3-(methylthio)phenoxy)-N-methylpicolinamide] | ≥ 75% | 1000 to 5000 nM
CSc1cc(Oc2ccnc3[nH]c(=O)cnc23)ccc1NC(=O)Nc1cc(C(C)(C)C)nn1-c1ccc(OCCN2CCOCC2)cc1 [(cf), 1-(3-(tert-butyl)-1-(4-(2-morpholinoethoxy)phenyl)-1 H-pyrazol-5-yl)-3-(2-(methylthio)-4-((3-oxo-3,4-dihydropyrido[2,3-b]pyrazin-8-yl)oxy)phenyl)urea] | ≥ 75% | 500 to 1000 nM
CC(C)(C)c1cc(NC(=O)Nc2cccc(Oc3ccnc4[nH]c(=O)cnc34)c2F)n(-c2ccccc2)n1 [(cw), 1-(3-(tert-butyl)-1-phenyl-1 H-pyrazol-5-yl)-3-(2-fluoro-3-((3-oxo-3,4-dihydropyrido[2,3-b]pyrazin-8-yl)oxy)phenyl)urea] | ≥ 75% | ≥ 5000 nM
CSc1cc(Oc2ccnc3[nH]c(=O)cnc23)ccc1NC(=O)Nc1cc(C(C)(C)C)no1 [(bx), 1-(3-(tert-butyl)isoxazol-5-yl)-3-(2-(methylthio)-4-((3-oxo-3,4-dihydropyrido[2,3-b]pyrazin-8-yl)oxy)phenyl)urea] | ≥ 75% | 500 to 1000 nM
CSc1cc(Oc2ccnc(NC(=O)CN(C)C(=O)OC(C)(C)C)c2)ccc1NC(=O)Nc1cc(C(C)(C)C)nn1-c1ccccc1 [(bp), tert-butyl (2-((4-(4-(3-(3-(tert-butyl)-1-phenyl-1H-pyrazol-5-yl)ureido)-3-(methylthio)phenoxy)pyridin-2-yl)amino)-2-oxoethyl)(methyl)carbamate] | ≥ 75% | < 500 nM
CC(=O)Nc1cc(Oc2ccc(NC(=O)Nc3cc(C(C)(C)C)nn3-c3ccccc3)c3ccccc23)ccn1 [(dj), N-(4-((4-(3-(3-(tert-butyl)-1-phenyl-1H-pyrazol-5-yl)ureido)naphthalen-1-yl)oxy)pyridin-2-yl)acetamide] | ≥ 75% | < 500 nM
